Reference: patent publication US20230107216A1, “PANTETHEINE DERIVATIVES AND USES THEREOF” (Comet Therapeutics, Inc., priority 2018, published 2023)
Like-named read-outs stand apart in the source and are kept apart here.

Legend:
HepG2 cells [1] = experiment: MitoBiogenesis In-Cell ELISA (COX-I, SDH-A); type: cell-based; conditions: Homo sapiens, 168 h, 10 uM, 7 days, read-out: % increase in Mitochondrial Biogenesis
Excerpt: We determined the effect of compounds of the present disclosure on the levels of two mitochondrial proteins using MitoBiogenesis™ In-Cell ELISA Kit (Abcam ab110216) according to manufacturer's instructions. The two proteins are each subunits of a different oxidative phosphorylation enzyme complex, one protein being subunit I of Complex IV (COX-1), which is mitochondrial (mt)DNA-encoded, and the other being the 70 kDa subunit of Complex II (SDH-A), which is nuclear (n)DNA-encoded. Complex IV includes several proteins which are encoded in the mitochondrion, while the proteins of Complex II are entirely encoded in the nucleus. HepG2 cells (ATCC, HB-8065) were cultured (5% CO2 at 37° C.) and plated in Poly-D-Lysine 384-Well plate (Corning, 356663) at a density of 40,000 cells/mL in 50 μL. Culture and assay media consisted of DMEM (Gibco, 11995-065) supplemented with 1% Penicillin-Streptomycin and 10% FBS (Hyclone, SV30087.03). Cells were allowed to settle for 30 min at room temperature and further incubated overnight (37° C. and 5% CO2) for adherence. Next day, 50-5 μM of the negative control Chloramphenicol (Selleck, S1677), test compounds (50-10 μM) and vehicle DMSO (0.2%) were added at the recommended volumes to the 384-well plate for 7 days without media change using a Tecan compound dispenser. All the solutions and wash buffers were prepared and dispensed according to manufacturer's volumes for a 384-well plate format. Effects of compounds on mtDNA-encoded protein expression (COX-I) and nuclear DNA-encoded mitochondrial protein expression (SDH-A) were expressed as relative signal (nm) to vehicle of a n=2 per conditions.

HepG2 cells [2] = experiment: Mitochondrial membrane potential (MITO-ID MP detection Kit); type: cell-based; conditions: Homo sapiens, 168 h, 7 days, read-out: % decrease in Mitochondrial Membrane Potential
Procedure, shortened: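 Cells plated at 160000 cells/mL in DMEM with 10% FBS and 1% Pen-Strep, adhered overnight at 37° C., 5% CO2. Exposure to test compounds (50-10 μM) or 0.2% DMSO for 7 days without media change; membrane potential measured with MITO-ID MP detection kit per manufacturer.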

[3] = test system: Bronchial epithelial cells co-cultured with dermal fibroblast (BF4T system); experiment: BioMAP BF4T system (TNFα and IL-4); type: cell-based, human; conditions: Homo sapiens, 24 h; 1 uM; procedure of Example 830; read-out: % increase in VCAM-1
[4] = test system: Peripheral blood mononuclear cells co-cultured with B-cells (BT system); experiment: cells; conditions: Homo sapiens, 72 h, read-out: % decrease in sIL-17
[5] = test system: Keratinocytes co-cultured with dermal fibroblast (KF3CT system); experiment: BioMAP KF3CT system (IL-1β, TNFα, IFNγ, TGFβ); type: cell-based, human; conditions: 1 uM
Method: The BioMAP platform (BioMAP® Diversity PLUS® Panel from Eurofins) is an in vitro phenotypic profiling technology that screened the compounds of the present disclosure (hereafter indicated as test agents) in human primary cell-based systems modelling complex tissue and disease states. The BioMAP assays were performed using the Eurofin's BioMAP Technology Platform as (see references 1 to 13 in the example 824 section) to model different diseases on primary cell-based model systems. These systems consisted of either single primary cell types or co-culture cells. Adherent cell types were cultured or co-cultured in 96 or 384-well plates until confluence followed by the addition of compounds prepared in DMSO at a final concentration of ≤0.1%. In each cell-based system, primary cells from heathy donors (2-6 donors) were pooled and treated with compounds at 1 and 10 μM dose 1h prior to stimulation and remain in culture as indicated in Example 825, Example 826, Example 827, Example 828, Example 829, Example 830, Example 831, Example 832, Example 833, Example 834, Example 835, Example 836 and Example 837. For on the BioMAP® Diversity PLUS® Panel, please see the following references, which are incorporate herein.
Following the general procedure as described in Example 824, Keratinocytes were co-cultured with dermal fibroblast (KF3CT system) and treated with IL-1β, TNFα, IFNγ and TGFβ for 24h in the presence or absence of the compounds to model psoriasis, dermatitis and skin biology. Biomarkers read out were; MCP-1, ICAM-1, IP-10, IL-8, MIG, IL-1α, MMP-9, PAI-1, SRB, TIMP-2, uPA.

[6] = test system: Coronary artery smooth muscle cells (CASM3C system); experiment: BioMAP CASM3C system (IL-1β, TNFα, IFNγ); type: cell-based, human
[7] = test system: Propionic Acidemia (PA) primary fibroblasts GM00371; experiment: Mitochondrial respiration, XFe96 Extracellular Flux Analyzer (OCR/ECAR), PA fibroblasts GM00371; type: cell-based; conditions: Homo sapiens, Fibroblast, assay condition C (10 mM glucose, 10% FBS), 50 μM, read-out: Increase in Maximal Respiratory Capacity AUC
[8] = test system: Dermal fibroblasts (HDF3CGF system); experiment: BioMAP HDF3CGF system (IL-1β, TNFα, IFNγ, EGF, bFGF, PDGF-BB); type: cell-based, human; conditions: Homo sapiens, Fibroblast, 72 h; 1 uM; read-out: % increase in 72 Hour Proliferation
HepG2 cells [9] = experiment: Glucose uptake (Glucose Uptake-Glo); type: cell-based; conditions: Homo sapiens, 50 uM, read-out: % increase in Glucose Uptake
[10] = test system: Bronchial epithelial cells (BE3C system); experiment: BioMAP BE3C system (IL-1β, TNFα, IFNγ); type: cell-based, human; conditions: Homo sapiens, Epithelial cell, 24 h; 10 uM; procedure of Example 831; read-out: % decrease in MMP-1
[11] = test system: Peripheral blood mononuclear cells co-cultured with venular endothelial cells (HUVEC) (LPS system); experiment: BioMAP LPS system; type: cell-based, human; conditions: 10 uM, procedure of Example 827
[12] = test system: Methylmalonic Acidemia (MMA) primary fibroblasts GM01673; experiment: Mitochondrial respiration, XFe96 Extracellular Flux Analyzer (OCR/ECAR), MMA fibroblasts GM01673; type: cell-based; conditions: Homo sapiens, Fibroblast, assay condition D (1 mM glucose, 10% FBS), 10 μM, read-out: Increase in Maximal Respiratory Capacity AUC
Method: The effect of the compounds of the present disclosure on mitochondrial respiration was measured with a XFe96 Extracellular Flux Analyzer (Seahorse Bioscience, Agilent Technologies) and Oxygen consumption Rate (OCR) and Extracellular acidification rate (ECAR) determined.
Cell culture and treatments. Primary adherent fibroblasts were cultured in minimum essential medium (MEM) (Gibco, 25030081) supplemented with 2 mM L-Glutamine (Gibco, 25030081), 15% fetal bovine serum (FBS) (Gibco, 26400044) and 1% penicillin/streptomycin (Gibco, 5140122) at 37° C. and 5% CO2. Cells were collected for either passaging or experiment at ˜70-80% confluence. Cells were obtained by trypsinization and seeded at 20000 cells/well in cell culture microplates (Seahorse Bioscience, 101085-004) and allowed to adhere for 16 hours in culture media.
By profiling different primary cells and/or optimizing their culture media or environmental components one can select cell lines and/or conditions that are appropriate for the biological or disease model. In the present example, 24 hours prior to OCR and ECAR profiling, media was changed to Dulbecco's Modified Eagle Medium (DMEM, Agilent Seahorse 103575-100) with the appropriate supplements for the different primary cells (10 mM glucose, 2 mM L-glutamine, 1 mM pyruvate, 10% FBS; 1 mM glucose, 2 mM L-glutamine, 1 mM pyruvate, 10% FBS; 10 mM glucose, 10% FBS; 5 mM glucose 10% FBS; 1 mM glucose 10% FBS). Cells used in this example were: Propionic Acidemia (PA) (GM00371, GM03590 Coriell Institute for Medical Research, Tsi 6337, Tsi 4626, Tsi 3618 Trans-Hit Bio), Methylmalonic Acidemia (MMA) (GM01673, Coriell Institute for Medical Research, Tsi 5224 Trans-Hit Bio), Branched chain ketoacid dehydrogenase kinase (BCKDK) (GM00612, GM00649 Coriell Institute for Medical Research), Subnormal activation of pyruvate dehydrogenase complex (PDH) (GM01503 Coriell Institute for Medical Research), Very long-chain acyl-CoA dehydrogenase (VLCAD) (GM17475), Leigh Syndrome (LS) (GM03672, GM13411 Coriell Institute for Medical Research), Pyruvate Carboxylase Deficiency (PC) (GM00444 Coriell Institute for Medical Research), Glutaric Acidemia-I (GA) (GM10653), Friedreich's Ataxia (FXN) (GM04078 Coriell Institute for Medical Research, Huntington's disease (HD) (GM21756 Coriell Institute for Medical Research), Ornithine Transcarbamylase Deficiency (OTC) (GM12756 Coriell Institute for Medical Research), Kearns-Sayre Syndrome (KSS) (GM06225 Coriell Institute for Medical Research).
One hour before the assay, the cells were washed with freshly prepared unbuffered serum free-Seahorse XF Assay medium (Seahorse Bioscience, North America, USA, 103575-100) with the same supplements as for the previous 24 hour incubation.
After baseline measurements of OCR, cells were challenged with compounds of the present disclosure at different concentrations (10 to 50 μM) or vehicle (DMSO, 0.1%) and a post-compound baseline was recorded. OCR was measured after sequentially adding to each well 1 μg/ml oligomycin (inhibitor of ATP synthase Sigma-Aldrich, 753531), then maximal OCR was determined with carbonyl cyanide 4-(trifluoromethoxy) phenylhydrazone (FCCP, Sigma-Aldrich, C2920), (uncoupler of oxidative phosphorylation) and 0.5 μM of rotenone (Sigma-Aldrich, R8875) plus antimycin A (Sigma-Aldrich, A8674) (inhibitors of mitochondrial complex I and III) for determination of rotenone-antimycin insensitive respiration together with Hoechst for nuclear staining in situ when normalized to cell counts. After the analysis and nuclear staining, the XFp microplate was transferred to the Cytation 5, and the nuclear images were captured, the individual nuclei were identified and counted by BioTek Gen5 software. Data were expressed as pmol of O2 per minute and normalized by nuclear staining and baselined to pre-compound addition.
Assay conditions were as stated below.
Assay specifics on assay conditions are indicated below when readouts were normalized to cell counts. […]

[13] = test system: primary fibroblasts (healthy controls and PA, MMA, BCKDK, PDH, VLCAD, LS, PC, GA, VLCFA, KSS, FXN, HD); experiment: Measurement of ROS (H2DCFDA) in primary fibroblasts; type: cell-based, human; conditions: Homo sapiens, Fibroblast, BCKD GM00649, procedure Example 812, Assay Condition C
Procedure, shortened: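 Patient and healthy-control primary fibroblasts switched to supplemented DMEM 24 h before assay, then treated with compound (10 μM) plus H2DCFDA (22 μM) for 2 h (PA, MMA lines) or 24 h (other lines). Kinetic fluorescence at 492/527 nm over 60 min; only live cells analysed.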

For `COC(=O)CCC(=O)SCCNC(=O)CCNC(=O)[C@H](O)C(C)(C)COP(=O)(O)O` [Compound 62, Methyl (R)-4-((2-(3-(2-hydroxy-3,3-dimethyl-4-(phosphonooxy)butanamido)propanamido)ethyl)thio)-4-oxobutanoate], the activation at 10 µM (HepG2 cells [1]) was > 5% and the inhibition at 50 µM (HepG2 cells [2]; 50 uM) was > 50%.

With `CC(C)(CO)[C@@H](O)C(=O)NCCC(=O)NCCSC(CC(=O)O)C(=O)OCC[N+](C)(C)C` (stereo partly drawn) [Compound 57, 3-(2-{3-[(R)-2,4-dihydroxy-3,3-dimethylbutyrylamino]propionylamino}ethylthio)-3-(2-trimethylazaniumethoxycarbonyl)propionic acid] the activation at 1 µM [3] was ≥ 10%, the inhibition at 10 µM [4] was ≥ 20% and the “% decrease in PAI-I” value [5] was ≥10%. For the same molecule, the “% decrease in MCP-1” value ([5]; procedure of 834) was ≥10%, the “% decrease in Tissue Factor” value ([6]; 1 uM) was ≥10% and the “% decrease in Proliferation” value ([6]; 1 uM, procedure of Example 832) was ≥10%. For the same molecule, the “% decrease in CXCL9” value ([6]; 10 uM) was ≥10%, the “% decrease in HLA-DR” value ([6]; 10 uM) was ≥10% and the inhibition at 10 µM ([6]; Homo sapiens, 24 h, 10 uM, read-out: % decrease in Thrombomodulin) was ≥ 20%. For the same molecule, the activation at 50 µM [7] was ≥ 10%, the activation at 1 µM [8] was ≥ 10% and the activation at 50 µM (HepG2 cells [9]) was ≥ 20%. The inhibition at 10 µM [10] was ≥ 10%, the “% increase in sPGE2” value [11] was ≥10% and the inhibition at 10 µM ([11]; Homo sapiens, HUVEC, 24 h, read-out: % decrease in TissueFactor) was ≥ 10%. For the same molecule, the activation at 10 µM ([11]; Homo sapiens, HUVEC, 24 h, read-out: % increase in sTNFα) was ≥ 20% and the activation at 10 µM [12] was ≥ 10%.

In the case of `CSCCNC(=O)CCNC(=O)[C@H](O)C(C)(C)CO` [Compound 1250, (R)-2,4-dihydroxy-3,3-dimethyl-N-(3-((2-(methylthio)ethyl)amino)-3-oxopropyl)butanamide], the activation at 10 µM (HepG2 cells [1]) was > 5% and the inhibition at 10 µM (HepG2 cells [2]) was > 50%.

With `COC(=O)C[C@H](N)C(=O)SCCNC(=O)CCNC(=O)[C@H](O)C(C)(C)CO` [Compound 414] the activation at 10 µM (HepG2 cells [1]) was 10%, the inhibition at 10 µM ([13]; read-out: Decreased ROS by at least 10%) was ≥ 10% and the inhibition at 10 µM ([13]; read-out: Decreased ROS by at least 30%) was ≥ 30%. For the same molecule, the inhibition at 10 µM (HepG2 cells [2]) was > 20%.
